Our source for the half-life values is PubChem BioAssay AID1508591.

What is called half-life is how long it takes for the measured level to halve. Read a low half-life as rapid decline.

For this data set the following is noted: rat; liver microsomes; pH 7.4; 15.0 min; 1.0 µM. On the technique in general: Liver microsomes are vesicles of endoplasmic reticulum, rich in cytochrome P450 enzymes.
Regarding `O=C(Nc1nc(-c2ccccc2)cs1)c1ccncc1NS(=O)(=O)c1ccc(F)cc1Cl`, the half-life was 19 min.
Turning to `Cc1cccc2oc(NC3=NC(c4[nH]ncc4Cl)C4=C(CCCC4=O)N3)nc12` (centres undefined), the half-life came out at 10.6 min.
For `COc1ccc(OC)c(N2C(=O)C(Cl)=C(N3CCCCC3)C2=O)c1`, the half-life is 1.5 min.
The value for `CCOC(=O)c1ccc(-n2c(C)cc(-c3nnc4n3CCCCC4)c2C)cc1` was 2.7 min.
The value for `Cc1ccc(OCCn2c(CCNC(=O)c3ccccc3Br)nc3ccccc32)cc1` was 1.6 min.
With `COc1cc2c(Oc3ccc(-c4cnc(Nc5ccc(F)cc5)n(C)c4=O)cc3F)ccnc2cc1OCCCN1CCOCC1`, the half-life is greater than 30 min.
As to `CCOc1ccc(CCNC(=O)c2ccccc2)cc1OCC`, the half-life was 1.5 min.
Regarding `COC(=O)c1cc2occc2n1Cc1nc(-c2ccc(C)cc2)oc1C`, the half-life turned out to be 3.86 min.
As to `O=C(Nc1ccc([S+](=O)([O-])Nc2nccs2)cc1)c1ccn[nH]1`, the half-life was greater than 30 min.
`Cc1ccnc(NC(=S)N2CCN(c3ccc(Cl)cc3Cl)CC2)c1` yielded a half-life greater than 30 min.
The value for `COc1cccc(-c2csc(N3CCC(C(N)=O)CC3)n2)c1` was 1.33 min; that for `Cc1ccc(S(=O)(=O)Nc2ccccc2C(=O)Nc2ccc(-c3ccccc3)cn2)cc1` was 4.9 min.
The value for `CCOc1ccc(CNC(=O)CCCn2nc(C)c3c(C)n(-c4ccc(C)cc4)nc3c2=O)cc1` was 3.01 min; that for `O=[S+]([O-])(Nc1ccccc1)c1ccc(NCc2cccc(C(F)(F)F)c2F)cc1` was 9 min; that for `CCOc1ccc(CCNC(=O)c2ccc3ccccc3n2)cc1OCC` was 1.7 min.
The compound `O=C(Nc1ccc(Cl)cc1)Nc1ccc(Cl)c(Cl)c1` showed a half-life greater than 30 min.
`CC(C)(O)CNc1nc(Nc2ccnc(C(F)(F)F)c2)nc(-c2cccc(C(F)(F)F)n2)n1` displayed a half-life greater than 30 min.
`CCc1ccc(S(=O)(=O)Nc2cnccc2C(=O)Nc2nc(-c3ccccc3)cs2)cc1` yielded a half-life of 4.4 min.
The figure for `CC1=C(C(=O)Nc2ccccc2)C(c2ccccc2Br)N=C(Nc2nc3ccccc3o2)N1` (centres undefined) is 27 min.
Turning to `Cc1ccnc(NC(=S)N2CC[C@@H](Nc3cccc(C(F)(F)F)c3)C2)c1`, the half-life worked out at 3.5 min.
Turning to `CN(C)C(=O)c1cccc(-c2csc(N3CCC(C(N)=O)CC3)n2)c1`, the half-life was greater than 30 min.
As for `Cc1ccc(S(=O)(=O)Nc2cnccc2C(=O)Nc2nc(-c3ccc(-c4ccccc4)cc3)cs2)cc1`, the half-life was greater than 30 min.
Turning to `C=C1c2cccc(O)c2C(O)=C2C(=O)[C@]3(O)C(O)=C(C(N)=O)C(=O)[C@@H](N(C)C)[C@@H]3[C@@H](O)[C@H]12`, the half-life is greater than 30 min.
`CC(C)C[C@H](NC(=O)[C@H](CCc1ccccc1)NC(=O)CN1CCOCC1)C(=O)N[C@@H](Cc1ccccc1)C(=O)N[C@@H](CC(C)C)C(=O)[C@@]1(C)CO1` displayed a half-life of 3.52 min.
`COCCOc1cnc2ccn([C@H](C)c3nnc4c(F)cc(-c5cnn(C)c5)cn34)c(=O)c2c1` gave a half-life greater than 30 min.
The compound `NC(=O)C1CCN(c2cc(-c3ccc4c(c3)OCCCO4)ncn2)CC1` registered a half-life greater than 30 min.
Compound `CC1CCc2cc(F)ccc2N1C(=O)CSc1nnc2c(n1)[nH]c1ccccc12` (centres undefined) yielded a half-life of 2.02 min.
For `O=C(Cc1ccc(Cl)cc1)Nc1cnccc1C(=O)O`, the half-life is greater than 30 min.
In the case of `Cc1ccccc1C(=O)N1CCc2cc(-c3nc(NC(=O)Cc4ccccc4)sc3C)ccc21`, the half-life is 24 min.
Consider `COC(=O)c1ccc(Nc2nc(-c3ccncc3)nc3ccccc23)cc1OC`, for which the half-life was found to be 9.5 min.
With `Cc1cnccc1-c1nc(Nc2ccc(F)c(F)c2)c2ccccc2n1`, the half-life came out at 10 min.
On to `C[C@@H]1C(=O)O[C@H]2[C@H]1CC[C@@]1(C)Cc3sc(NS(=O)(=O)Cc4ccccc4)nc3[C@@H](C)[C@H]21`, for which the half-life was found to be 1.69 min.
Turning to `O=C(c1ccccc1)N1CCC(c2nn(-c3ccc(F)cc3)c(=O)[nH]2)CC1`, the half-life is greater than 30 min.
In turn, `Cc1cccc(-n2cnc3cc(C(=O)N4CCCC(C(C)C)C4)ccc32)c1` (centres undefined) yielded a half-life of 1.8 min.
